Laboratory results from patent publication US20250263404A1, “AMINOPYRIDINES AS ACTIVATORS OF PI3 KINASE” (UCL Business Ltd, priority 2021, published 2025).

How the values were obtained:
[1] = test system: pAKT^S473 in MEFs and A549; test: Time course of pAKT S473 induction in MEFs and A549; type: cell-based; details: 1938 (5 μM)
Excerpt: The inventors next monitored the activation of AKT, the best-known PI3K effector stimulated by PIP3/PI(3,4)P2 production in cells. […] As previously reported, PI3Kα-null MEFs still respond to insulin, but now in a PI3Kβ-dependent manner, as shown by sensitivity of insulin-stimulated pAKT^S473 to the PI3Kβ-selective inhibitor TGX-221 (FIG. 3b). […] Similar observations were made for mTORC1 pathway activation, as measured by S6 (Ser240/44) and 4EBP1 (Ser65) phosphorylation (FIG. 3e). […] Experiments with A549 cells and MEFs were performed separately using slightly different protocols. Briefly, A549 cells were seeded at 200,000 cells per well in 24-well plates in DMEM (10% FBS+1% P/S) and allowed to adhere overnight. The next day, cells were washed once with PBS before addition of serum-free DMEM for 24 h. On the day of treatment, cells were incubated in fresh serum-free DMEM prior to treatment. […]

[2] = test system: 133 protein kinases and 7 lipid kinases; test: SelectScreen kinase profiling panel; type: biochemical
Experimental: 133 protein kinases and 7 lipid kinases were counterscreened, with […] used at 1 μM, using the Adapta, Lantha and Z-LYTE assays (SelectScreen Kinase Profiling Service; Thermofisher—experimental details of these assays can be found here: https://www.thermofisher.com/uk/en/home/industrial/pharma-biopharma/drug-discovery-development/target-and-lead-identification-and-validation/kinasebiology/kinase-activity-assays.html. The tree representation in KinMap generated courtesy of Cell Signaling Technology, Inc. (www.cellsignal.com). mTORC1 (mTOR/RAPTOR/LST8) protein complex and ATM kinase and substrates were produced as previously described (Anandapadamanaban, M. et al. Science (New York, NY 366, 203-210 (2019); Baretic, D. et al. Sci Adv 3, e1700933 (2017). Screening of 1938 was conducted using SuperSep Phos-Tag 50 μmol/l 100×100×6.6 mm 17-well (192-18001/199-18011) gels. For ATM assays, 100 nM ATM was incubated for 30 min at 30° C. with 5 μM GST-p53 and 1 mM ATP, in the absence or presence of 200 μM 1938 in ATM Kinase Buffer (50 mM HEPES pH 7.5, 100 mM NaCl, 10% glycerol, 2 mM […], 5 mM MgCl2). […] Gels were then stained using InstantBlue™ Coomassie stain, and then quantified using BioRad Image Lab Software. […]

isolated rat hearts = test: Langendorff ex vivo perfused rat heart model of IRI; details: 5 μM

Structure (SMILES): CCN1CCN(c2ccc(Nc3cc(Nc4cccc5c4N(C(C)=O)CC5)ccn3)cc2)CC1 [Example 1938]
- time of onset of pAKT^S473 induction [1]: 5 min
- time of peak pAKT^S473 activation [1]: 30 min
- number of protein kinases inhibited between 25-50% ([2]; 1 μM of 1938): 13
- activity of other PI3K isoforms and PI3K-related kinases in the panel ([2]; PI3Kβ, PI3Kγ, PI3Kδ, PI3K-C2α, Vps34, PI4Kβ, mTOR, DNA-PK, 1 μM): did not affect
- pAKT S473 in perfused rat hearts (isolated rat hearts): increase in generation of pAKTS473
- tissue protection from IRI (isolated rat hearts; administration during first 15 min of reperfusion): substantial tissue protection from IRI
